Measurements from US5055469A, “Quaternary pyridinium salts useful for ulcer treatment” (Hamari Chemicals, Ltd., priority 1988, dated 1991).

Tests used:
[1] = tested on: Slc:SD rats; assay: Water-immersion stress ulceration method (antiulcer activity); assay type: in vivo, rat (male Slc:SD); conditions: 30 minutes before stress loading; for U.I. (ulcer index) Mean ± S.E.: non-treated control 13.4 ± 2.71
Procedure: After stress loading for 7 hours, the rats were killed through exsanguination, and the stomachs were removed, perfused in the inside with 10 ml of 2% formalin and then immersed in the same solution for 10 minutes for fixation. The stomachs were incised along the greater curvature, and the ulcers thus induced were measured for length under the stereoscopic microscope (magnification×10), whereby the total sum of the lengths was taken as an ulcer index (U.I., in mm). The test substance was given orally to rats in the form of a 4% gum arabic suspension 30 minutes before stress loading.

[2] = Acute toxicity; set-up: species or system mouse (male ddY); conditions: mouse, in vivo; mice, oral, single dose, observed for 7 days
Excerpt: A group of five male ddY mice (4-weeks aged) was used for testing.
The compound of Example 4 was suspended in 4% gum arabic solution to prepare a test pharmaceutical, which was given orally to each test animal once.

[3] = 30 mg/kg orally, test substance marked *p < 0.05

In the case of Cc1ccc(Nc2ccccc2NC(=O)C[n+]2ccccc2)cc1.[Cl-] [Example 4, 1-[2-[[2-[(4-methylphenyl)amino]phenyl]amino]-2-oxoethyl]pyridinium chloride], the Inhibition rate ([1]; 10 mg/kg orally) is reported as 19.0%, the “U.I. (ulcer index) Mean ± S.E.” value ([1]; 10 mg/kg orally) is reported as 10.8 ± 3.15 mm and the “U.I. (ulcer index) Mean ± S.E.” value ([1]; 30 mg/kg orally) is reported as 3.3 ± 1.82 mm. The Inhibition rate [1, 3] was 75.1%, the Inhibition rate ([1]; 100 mg/kg orally, marked **p < 0.01) was 90.0% and the “U.I. (ulcer index) Mean ± S.E.” value ([1]; 100 mg/kg orally) was 1.3 ± 0.88 mm. For the same compound, the LD50 at 168 h [2] was no less than 2000 mg/kg.
With CN/C(=N/CCSCc1nc[nH]c1C)NC#N [Cimetidine, reference compound] the “U.I. (ulcer index) Mean ± S.E.” value ([1]; 30 mg/kg orally) was 5.2 ± 3.40 mm and the Inhibition rate [1, 3] was 61.4%.
